Measured values as given in patent US7892581B2, “Compositions and methods for protection of harvested fruits from decay” (Gavish-Galilee Bio Applications Ltd., priority 2005, dated 2011).

Assay: Release profile of marker components into vapor phase (headspace GC)
Type: physicochemical
Details: for Concentration in the vapor phase: Thyme oil, within 3 hours; for Time to saturation of the vapor phase: release from essential oil on filter paper, sealed vial, 20° C.
Procedure: The profile of release of essential oils was determined by analyses using Gas Chromatograph HP6890 Series GC-System (FID) coupled with HP 7694 Headspace sampler, equipped with column HP-5 Trace Analysis (5% PH Me Siloxane) of volume 30 m×0.25 mm×0.25 μm, at ambient temperature. The following model system was developed and calibrated: filter paper (Whatman No. 1) strips absorbed with appropriate volume of essential oil to achieve desired concentrations, i.e., similar to those used for in-vivo experiments, were placed in 20 ml and 100 ml vials. The vials were hermetically sealed and marked to indicate the time course of vaporization (1, 3, 14 and 24 hours). These vials were kept in the dark at a temperature of 20° C. until their gas chromatography analyses.
GC FID analysis was applied to determine the release profile into the vapor phase of marker individual components during a 24 hour period. […] For all markers tested, saturation was achieved within 3 hours.

| SMILES | Concentration in the vapor phase | Time to saturation of the vapor phase |
| --- | --- | --- |
| Cc1ccc(C(C)C)cc1 [p-cymene] | ~56% | – |
| C=CCN=C=S [allyl isothiocyanate] | – | ~1.5 h |
| CC(C)=CCCC(C)CC=O (stereo not shown) [citronellal] | – | ~3.0 h |
| Cc1ccc(C(C)C)c(O)c1 [thymol] | ~1.2% | – |
